Test results: patent publication US8614327B2 (Vertex Pharmaceuticals Incorporated, priority 2004, dated 2013)

Molecular target: T1, ΔF508-CFTR (Homo sapiens, UniProt P13569, DEL508-508)
T1 construct: expressed in transfected cells
Assay: Membrane potential optical (FRET/VIPR) assay, identification of potentiator compounds
Format: cell-based
Conditions: Table 3, assay not given; for % Activity: relative efficacy
Procedure, shortened: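 Double-addition potentiator screen: compound delivered in gluconate-substituted Cl^--free medium, membrane potential followed via CC2-DMPE/DiSBAC2(3) FRET on VIPR. Cells were ΔF508-CFTR-expressing NIH3T3 mouse fibroblasts, held 2 h at 37° C. then 24 h at 27° C. before assay.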

T1 sequence (P13569 with tags, fused parts or gaps DEL508-508): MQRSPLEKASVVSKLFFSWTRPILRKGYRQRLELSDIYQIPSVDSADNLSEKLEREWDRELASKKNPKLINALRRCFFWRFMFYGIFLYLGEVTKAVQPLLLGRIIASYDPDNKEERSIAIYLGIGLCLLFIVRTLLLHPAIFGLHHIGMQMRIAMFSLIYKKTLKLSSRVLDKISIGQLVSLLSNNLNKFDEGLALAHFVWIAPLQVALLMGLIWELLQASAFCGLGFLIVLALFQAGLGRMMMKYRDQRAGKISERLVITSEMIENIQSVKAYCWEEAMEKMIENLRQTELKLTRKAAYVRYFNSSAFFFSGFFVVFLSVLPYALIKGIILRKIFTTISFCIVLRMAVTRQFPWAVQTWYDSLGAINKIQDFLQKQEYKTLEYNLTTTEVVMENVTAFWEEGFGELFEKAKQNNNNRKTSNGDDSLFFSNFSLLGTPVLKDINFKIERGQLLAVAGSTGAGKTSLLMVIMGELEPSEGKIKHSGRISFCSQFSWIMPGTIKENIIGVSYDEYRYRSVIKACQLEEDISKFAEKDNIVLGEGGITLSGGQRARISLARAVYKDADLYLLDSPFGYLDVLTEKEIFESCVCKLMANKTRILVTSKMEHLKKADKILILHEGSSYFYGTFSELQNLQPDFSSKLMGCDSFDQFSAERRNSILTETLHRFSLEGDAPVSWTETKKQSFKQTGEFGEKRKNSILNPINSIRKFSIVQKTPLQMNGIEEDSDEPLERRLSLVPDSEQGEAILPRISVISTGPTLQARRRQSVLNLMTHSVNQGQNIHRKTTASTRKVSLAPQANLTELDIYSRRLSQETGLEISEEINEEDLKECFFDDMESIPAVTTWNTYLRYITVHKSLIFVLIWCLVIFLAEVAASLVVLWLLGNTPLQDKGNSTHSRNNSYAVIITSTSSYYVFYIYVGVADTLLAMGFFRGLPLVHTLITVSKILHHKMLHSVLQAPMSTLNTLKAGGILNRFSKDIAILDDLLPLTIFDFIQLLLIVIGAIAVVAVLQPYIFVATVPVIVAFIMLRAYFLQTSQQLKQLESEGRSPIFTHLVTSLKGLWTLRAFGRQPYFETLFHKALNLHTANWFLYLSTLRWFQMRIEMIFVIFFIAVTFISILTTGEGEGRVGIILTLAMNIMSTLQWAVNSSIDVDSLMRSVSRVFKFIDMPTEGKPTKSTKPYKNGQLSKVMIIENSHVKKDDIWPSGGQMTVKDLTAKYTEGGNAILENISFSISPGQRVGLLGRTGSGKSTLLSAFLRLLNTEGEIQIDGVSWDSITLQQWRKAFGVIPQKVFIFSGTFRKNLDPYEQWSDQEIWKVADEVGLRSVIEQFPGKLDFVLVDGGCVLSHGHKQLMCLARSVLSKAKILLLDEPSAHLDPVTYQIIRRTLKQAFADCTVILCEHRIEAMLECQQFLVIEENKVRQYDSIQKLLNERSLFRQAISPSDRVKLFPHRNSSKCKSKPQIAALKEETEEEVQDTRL

Compound | EC50 [µM] | % Activity
CC(C)c1ccc(N)cc1NC(=O)c1c[nH]c2ccccc2c1=O [Compound 101, N-(5-amino-2-isopropyl-phenyl)-4-oxo-1H-quinoline-3-carboxamide] | < 10 | ++ (between 25% to 100%)
O=C(Nc1ccccc1-c1nc(-c2ccc(Cl)cc2)no1)c1c[nH]c2ccccc2c1=O [Compound 102, N-[2-[3-(4-chlorophenyl)-1,2,4-oxadiazol-5-yl]phenyl]-4-oxo-1H-quinoline-3-carboxamide] | 10 to 25 | ++ (between 25% to 100%)
CC(C)(C)c1cc(C(C)(C)C)c(NC(=O)c2c[nH]c3ccc(F)cc3c2=O)cc1O [Compound 103, 6-fluoro-N-(5-hydroxy-2,4-ditert-butyl-phenyl)-4-oxo-1H-quinoline-3-carboxamide] | < 10 | +++ (>100%)
Cc1cc2ccc(NC(=O)c3c[nH]c4ccccc4c3=O)cc2[nH]1 [Compound 104, N-(2-methyl-1H-indol-6-yl)-4-oxo-1H-quinoline-3-carboxamide] | < 10 | ++ (between 25% to 100%)
O=C(Nc1ccc2c(c1)NCCO2)c1c[nH]c2ccccc2c1=O [Compound 105, 1,4-dihydro-N-(3,4-dihydro-2H-benzo[b][1,4]oxazin-6-yl)-4-oxoquinoline-3-carboxamide] | 10 to 25 | ++ (between 25% to 100%)
COc1cc(C#N)c(NC(=O)c2c[nH]c3ccccc3c2=O)cc1OC [Compound 106, N-(2-cyano-4,5-dimethoxy-phenyl)-4-oxo-1H-quinoline-3-carboxamide] | 25 to 60 | + (<25%)
CC(C)(C)OC(=O)N1CCc2ccc(NC(=O)c3c[nH]c4ccccc4c3=O)cc2C1 [Compound 107, 7-[(4-oxo-1H-quinolin-3-yl)carbonylamino]-1,2,3,4-tetrahydroisoquinoline-2-carboxylic acid tert-butyl ester] | 10 to 25 | ++ (between 25% to 100%)
CC(C)(C)OC(=O)N1CCC(C)(C)c2ccc(NC(=O)c3c[nH]c4ccccc4c3=O)cc21 [Compound 108, 4,4-dimethyl-7-[(4-oxo-1H-quinolin-3-yl)carbonylamino]-1,2,3,4-tetrahydroquinoline-1-carboxylic acid tert-butyl ester] | < 10 | ++ (between 25% to 100%)
CC(=O)N1CCCC(C)(C)c2ccc(NC(=O)c3c[nH]c4ccccc4c3=O)cc21 [Compound 109, N-(1-acetyl-2,3,4,5-tetrahydro-5,5-dimethyl-1H-benzo[b]azepin-8-yl)-1,4-dihydro-4-oxoquinoline-3-carboxamide] | – | ++ (between 25% to 100%)
N#CCc1ccc(NC(=O)c2c[nH]c3ccccc3c2=O)cc1 [Compound 110, N-[4-(cyanomethyl)phenyl]-4-oxo-1H-quinoline-3-carboxamide] | 25 to 60 | + (<25%)
O=C(Nc1ccccc1C(F)(F)F)c1c[nH]c2ccccc2c1=O [Compound 111, 4-oxo-N-[2-(trifluoromethyl)phenyl]-1H-quinoline-3-carboxamide] | < 10 | ++ (between 25% to 100%)
CCOc1ccc2ncc(C(=O)Nc3ccc4cc[nH]c4c3)c(O)c2c1 [Compound 112, 6-ethoxy-4-hydroxy-N-(1H-indol-6-yl)quinoline-3-carboxamide] | < 10 | ++ (between 25% to 100%)
Cc1c[nH]c2cc(NC(=O)c3c[nH]c4ccccc4c3=O)ccc12 [Compound 113, N-(3-methyl-1H-indol-6-yl)-4-oxo-1H-quinoline-3-carboxamide] | < 10 | ++ (between 25% to 100%)
CCOc1ccccc1-c1ccc(NC(=O)OC(C)(C)C)cc1NC(=O)c1c[nH]c2ccccc2c1=O [Compound 114, [4-(2-ethoxyphenyl)-3-[(4-oxo-1H-quinolin-3-yl)carbonylamino]phenyl]aminoformic acid tert-butyl ester] | < 10 | ++ (between 25% to 100%)
O=C(Nc1ccccc1-c1ccco1)c1c[nH]c2ccccc2c1=O [Compound 115, N-[2-(2-furyl)phenyl]-4-oxo-1H-quinoline-3-carboxamide] | < 10 | ++ (between 25% to 100%)
O=C(Nc1ccc2cc[nH]c2c1)c1c[nH]c2cccc(O)c2c1=O [Compound 116, 5-hydroxy-N-(1H-indol-6-yl)-4-oxo-1H-quinoline-3-carboxamide] | < 10 | ++ (between 25% to 100%)
CC(C)c1ccc(NC(=O)c2c[nH]c3ccccc3c2=O)cc1N(C)C [Compound 117, N-(3-dimethylamino-4-isopropyl-phenyl)-4-oxo-1H-quinoline-3-carboxamide] | < 10 | ++ (between 25% to 100%)
O=C(Nc1ccccc1-c1ccc2[nH]ccc2c1)c1c[nH]c2ccccc2c1=O [Compound 118, N-[2-(1H-indol-5-yl)phenyl]-4-oxo-1H-quinoline-3-carboxamide] | – | ++ (between 25% to 100%)

Compound | EC50 [µM] | % Activity
CCOC(=O)NCC(C)(C)c1ccc(NC(=O)c2c[nH]c3ccccc3c2=O)cc1 [Compound 119, [2-methyl-2-[4-[(4-oxo-1H-quinolin-3-yl)carbonylamino]phenyl]-propyl]aminoformic acid ethyl ester] | < 10 | ++ (between 25% to 100%)
COc1ccc(C)cc1NC(=O)c1c[nH]c2ccccc2c1=O [Compound 120, N-(2-methoxy-5-methyl-phenyl)-4-oxo-1H-quinoline-3-carboxamide] | 10 to 25 | ++ (between 25% to 100%)
COc1ccc(NC(=O)c2c[nH]c3ccccc3c2=O)cc1OC [Compound 122, N-(3,4-dimethoxyphenyl)-4-oxo-1H-quinoline-3-carboxamide] | 25 to 60 | + (<25%)
O=C(Nc1ccccc1-c1ccoc1)c1c[nH]c2ccccc2c1=O [Compound 123, N-[2-(3-furyl)phenyl]-4-oxo-1H-quinoline-3-carboxamide] | – | ++ (between 25% to 100%)
CC(C)(C)c1cc2cc[nH]c2cc1NC(=O)c1c[nH]c2ccc(F)cc2c1=O [Compound 124, 6-fluoro-4-oxo-N-(5-tert-butyl-1H-indol-6-yl)-1H-quinoline-3-carboxamide] | < 10 | +++ (>100%)
CCc1cccc(NC(=O)c2c[nH]c3ccccc3c2=O)n1 [Compound 125, N-(6-ethyl-2-pyridyl)-4-oxo-1H-quinoline-3-carboxamide] | 10 to 25 | ++ (between 25% to 100%)
COCCOCC(C)(C)c1ccc(NC(=O)c2c[nH]c3ccccc3c2=O)cc1O [Compound 126, N-[3-hydroxy-4-[2-(2-methoxyethoxy)-1,1-dimethyl-ethyl]-phenyl]-4-oxo-1H-quinoline-3-carboxamide] | < 10 | ++ (between 25% to 100%)
CCOC(=O)Nc1cc(NC(=O)c2c[nH]c3ccccc3c2=O)ccc1C(C)(C)C [Compound 127, [5-[(4-oxo-1H-quinolin-3-yl)carbonylamino]-2-tert-butyl-phenyl]aminoformic acid ethyl ester] | < 10 | ++ (between 25% to 100%)
Cc1ccc2c(c1)c(=O)c(C(=O)Nc1ccccc1-c1ccccc1)cn2C [Compound 128, 1,6-dimethyl-4-oxo-N-(2-phenylphenyl)-1H-quinoline-3-carboxamide] | 25 to 60 | + (<25%)
CCc1ccc(NC(=O)c2c[nH]c3ccccc3c2=O)cc1NC(=O)OC [Compound 129, [2-ethyl-5-[(4-oxo-1H-quinolin-3-yl)carbonylamino]phenyl]aminoformic acid methyl ester] | 10 to 25 | ++ (between 25% to 100%)
O=C(Nc1ccc2cc[nH]c2c1)c1cnc2cc(C(F)(F)F)cc(C(F)(F)F)c2c1O [Compound 130, 4-hydroxy-N-(1H-indol-6-yl)-5,7-bis(trifluoromethyl)quinoline-3-carboxamide] | < 10 | ++ (between 25% to 100%)
Nc1cc(Cl)cc(NC(=O)c2c[nH]c3ccccc3c2=O)c1 [Compound 131, N-(3-amino-5-chloro-phenyl)-4-oxo-1H-quinoline-3-carboxamide] | – | ++ (between 25% to 100%)
CCOc1ccc(NC(C)=O)cc1NC(=O)c1c[nH]c2ccccc2c1=O [Compound 132, N-(5-acetylamino-2-ethoxy-phenyl)-4-oxo-1H-quinoline-3-carboxamide] | 25 to 60 | + (<25%)
O=C(Nc1cc(Cl)cc(NS(=O)(=O)CCN2CCCCC2)c1)c1c[nH]c2ccccc2c1=O [Compound 133, N-[3-chloro-5-[2-(1-piperidyl)ethylsulfonylamino]phenyl]-4-oxo-1H-quinoline-3-carboxamide] | 10 to 25 | ++ (between 25% to 100%)
C[S+]([O-])c1ccc(-c2ccccc2NC(=O)c2c[nH]c3ccccc3c2=O)cc1 (centres unmarked) [Compound 134, N-[2-(4-methylsulfinylphenyl)phenyl]-4-oxo-1H-quinoline-3-carboxamide] | < 10 | ++ (between 25% to 100%)
O=C(Nc1ccccc1-c1ccc2c(c1)OCO2)c1c[nH]c2ccccc2c1=O [Compound 135, N-(2-benzo[1,3]dioxol-5-ylphenyl)-4-oxo-1H-quinoline-3-carboxamide] | < 10 | +++ (>100%)
CC(C)(C)c1cc(NC(=O)c2c[nH]c3ccccc3c2=O)c(O)c(C(C)(C)C)c1 [Compound 136, N-(2-hydroxy-3,5-ditert-butyl-phenyl)-4-oxo-1H-quinoline-3-carboxamide] | < 10 | ++ (between 25% to 100%)
CN(c1ccc(F)cc1)S(=O)(=O)c1ccc2[nH]cc(C(=O)Nc3cc(O)c(C(C)(C)C)cc3C(C)(C)C)c(=O)c2c1 [Compound 137, 6-[(4-fluorophenyl)-methyl-sulfamoyl]-N-(5-hydroxy-2,4-ditert-butyl-phenyl)-4-oxo-1H-quinoline-3-carboxamide] | < 10 | ++ (between 25% to 100%)
